# Values quoted from earlier work as cited in US5919770A, “Metabolites of ginseng saponins by human intestinal bacteria and its preparation for an anticancer” (Il Hwa Co., Ltd., priority 1996, dated 1999).
# System: liver cancer cells
# Conditions: Japanese Patent No. 89-28759; cited from earlier work
smiles,measurement,value
"CC(C)=CCC[C@](C)(O)[C@H]1CC[C@]2(C)[C@@H]1[C@H](O)C[C@@H]1[C@@]3(C)CC[C@H](O[C@@H]4O[C@H](CO)[C@@H](O)[C@H](O)[C@H]4O)C(C)(C)[C@@H]3CC[C@]12C [ginsenoside Rh2, 3-0-β-D-glucopyranosyl-20(s)-protopanaxadiol]",inhibition of the proliferation of liver cancer cells,inhibit the proliferation of liver cancer cells
